We go through 6 compounds from article PMC9785492 (Viruses, 2022).

One data set in a line: Cytotoxicity MTT assay. The note with it: dog, MDCK cells. A general note: Formazan colour is commonly taken as a measure of viable cells.
Data set [1] deals with influenza A virus (A/Puerto Rico/8/34). The note with it: for IC50: read-out: IC50, Inhibition of A/Puerto Rico/8/34 Infection, MDCK cells, 100 TCID50, MTT-based, 48 h post-infection.
A further data set in a line: in vitro. Conditions: dog.
In data set [2] the test system is influenza A virus (A/Puerto Rico/8/34). Description: microbe, parasite or virus in culture. The note with it: MDCK, read-out: IC50, Inhibition of A/Puerto Rico/8/34 Infection.
Data set [3] has as its system caveolin-mediated endocytosis in A549 cells. It counts as cell-based, human.
The subject of data set [4] is H5N1 pseudovirus A/Anhui/1/2005. Nature of the data set: organism not typed. It counts as cell-based, H5N1 IAV.
In data set [5] the test system is H5N1 pseudovirus A/Hong Kong/156/1997. Description: organism not typed. It counts as cell-based, H5N1 IAV.
The test system of data set [6] is H5N1 pseudovirus A/Xinjiang/1/2006. Description: organism not typed. It counts as cell-based, H5N1 IAV.
Data set [7] relates to vesicular stomatitis virus G (VSV-G) PsV. It counts as cell-based.
The test system of data set [8] is influenza viral polymerase activity. It is filed as cell-based, Influenza A virus.
The test system of data set [9] is clathrin-mediated endocytosis in A549 cells. Nature of the data set: Fluorescence confocal assay, Tf-568 uptake. It is filed as cell-based, human. Conditions: 20 μM, 3 h pre-treatment.
A further data set relates to A/WSN/33 (H1N1). Nature of the data set: microbe, parasite or virus in culture. It is filed as cell-based, Influenza A virus (H1N1). The note with it: Influenza A virus, MDCK.
For data set [10], the system named is clathrin-associated uptake of transferrin in A549 cells. Description: Transferrin absorption test. Conditions: pretreated 3 h, transferrin 15 µg/mL 30 min, Western blotting. On the technique in general: Immunoblotting shows a protein as a band on a membrane.
In the next data set the test system is caveolin-1. It counts as cell-based, human.
Data set [11] concerns H5N1 pseudovirus A/Qinghai/59/2005. Description: organism not typed. It counts as cell-based, H5N1 IAV.
The test system of a further data set is A/Aichi/2/68 (H3N2). Description: microbe, parasite or virus in culture. Conditions: Influenza A virus, H3N2, MDCK. It counts as cell-based.
Data set [12] relates to IAV replication in A549 cells. It counts as cell-based. Conditions: viral protein and gene.
The subject of data set [13] is IAV-induced Ca2+ influx in A549 cells. Description: Intracellular Ca2+ level during IAV infection (BBcellProbeTMF3). Conditions: A/WSN/33. It counts as cell-based, human.
For the next data set, the system named is A/FM-1/1/47 (H1N1). Description: microbe, parasite or virus in culture. It counts as cell-based. Conditions: Influenza A virus, H1N1, MDCK.
The test system of data set [14] is IAV proteins NP and PB2, NP mRNA. It counts as cell-based. Conditions: MDCK cells.

Like-named read-outs stand apart in the source and are kept apart here.

The compound `COCCOC(=O)C1=C(C)NC(C)=C(C(=O)OC(C)C)C1c1cccc([N+](=O)[O-])c1` (centres unmarked) [Nimodipine] displayed a CC50 at 48 h in “Cytotoxicity MTT assay” of over 200 µM. Moreover, in data set [1], the “SI (CC50/ IC50)” value is over 15.58 and the IC50 came to 12.8 ± 1.72 µM.
Consider `COCCOC(=O)C1=C(C)NC(C)=C(C(=O)OC/C=C/c2ccccc2)C1c1cccc([N+](=O)[O-])c1` (centres unmarked) [Cilnidipine], for which, in data set [1] (A/Puerto Rico/8/34), the “SI (CC50/ IC50)” value is reported as over 14.02. This compound returned a CC50 at 48 h in the data set “in vitro” of over 200 µM. Also, in [2] (48 h), the IC50 stood at 14.3 ± 2.66 µM.
As for methyl-β-cyclodextrin [MβCD], the “CTB-FITC endocytosis (immunostaining)” value in data set [3] was “less immunostaining”.
In the data set “Cytotoxicity MTT assay”, `CC(=O)N[C@H]1[C@H]([C@H](O)[C@H](O)CO)OC(C(=O)O)=C[C@@H]1N=C(N)N` [Zanamivir] displayed a CC50 at 48 h of over 0.2 µM. Moreover, the “SI (CC50/ IC50)” value in [1] was over 158.73. Further, in [2], the IC50 amounted to 0.00126 ± 0.0003 µM.
Turning to `COC(=O)C1=C(C)NC(C)=C(C(=O)OCC(C)C)C1c1ccccc1[N+](=O)[O-]` (centres unmarked) [Nisoldipine], the IC50 is 2.59 ± 0.46 µM in [4]; 4.47 ± 0.47 µM in data set [5]; 3.87 ± 0.51 µM in [6]; 4.74 ± 0.76 µM in [1]; 4.47 ± 0.25 µM with A/WSN/33 (H1N1); 5.84 ± 0.64 µM in data set [11]. The results for the IC50 in the data set on A/Aichi/2/68 (H3N2) and in the data set with A/FM-1/1/47 (H1N1) were 5.68 ± 0.61 µM and 6.96 ± 0.78 µM, respectively. Also, in “Cytotoxicity MTT assay”, the CC50 at 48 h is over 200 µM. The “inhibition of VSV-G PsV infection” value in data set [7] was “much less efficiency”. In data set [8], the “influenza viral polymerase activity” value is “did not affect”. In addition, the “transferrin (Tf-568) uptake” value in data set [9] is reported as “decreased”. Further, the internalization of transferrin entry in data set [10] is “markedly reduced”. Moreover, in the data set on caveolin-1, the “expression of caveolin-1” value is “reduce the expression of caveolin-1”. The “CTB-FITC endocytosis (immunostaining)” value in data set [3] is reported as “less immunostaining”. The “IAV replication in A549 cells” value in [12] is reported as “interfered with IAV replication”. In addition, the “IAV-induced Ca2+ influx” value in data set [13] is “inhibited”. Besides, the “expression of IAV proteins NP and PB2” value in data set [14] (Western blotting, dose-dependent) is “significantly inhibited”. In [14] (qRT-PCR), the “NP mRNA expression” value is reported as “decreased”.
`CCOC(=O)C1=C(C)NC(C)=C(C(=O)OC)C1c1cccc([N+](=O)[O-])c1` (centres unmarked) [Nitrendipine] displayed a CC50 at 48 h in “Cytotoxicity MTT assay” of 171 ± 14.1 µM. For the same compound, in [1], the “SI (CC50/ IC50)” value is listed as 23.56 and the IC50 was determined as 7.26 ± 1.89 µM.
